Experimental data published in PubChem BioAssay (NCI).
Several values for one entry are separate records, joined by “and”; a condition that tells them apart may be missing. Equal entries are not always repeated.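 Grown in 96-well plates, cells were treated for 48 hours with each compound at five concentrations. Insufficient inhibition: endpoint recorded as highest concentration tested. GI50 = concentration required for 50% inhibition of growth. TGI: total growth inhibition.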

Assays:
Assay in all cases: inhibition of tumour cell growth, NCI panel, 48 h
OVCAR-5 ovarian = system: OVCAR-5 ovarian
NCI-H460 lung = system: NCI-H460 lung
HCT-116 colon = system: HCT-116 colon
A549 NSCLC = system: A549 NSCLC
HS 578T breast = system: HS 578T breast
BT-549 breast = system: BT-549 breast
RPMI-8226 leukemia = system: RPMI-8226 leukemia

SMILES | GI50 (OVCAR-5 ovarian) | TGI (OVCAR-5 ovarian) | GI50 (NCI-H460 lung) | TGI (NCI-H460 lung) | GI50 (HCT-116 colon) | TGI (HCT-116 colon) | GI50 (A549 NSCLC) | TGI (A549 NSCLC) | GI50 (HS 578T breast) | TGI (HS 578T breast) | GI50 (BT-549 breast) | TGI (BT-549 breast) | GI50 (RPMI-8226 leukemia) | TGI (RPMI-8226 leukemia)
CCNCCNc1cc(-c2ccc(F)cc2)c(C#N)c2nc3ccccc3n12 | 4.45 µM | 15.9 µM | 3.36 µM | 10.8 µM | 2.24 µM | 4.34 µM | 4.78 µM | 15.4 µM | 3.15 µM | 12.5 µM | 4.53 µM | 15.5 µM | 2.86 µM | 7.58 µM
COc1cc(C2C(C#N)=C(N)OC3=C2C(=O)c2ccccc2C3=O)cc(OC)c1OC (stereo not given) | 4.26 µM | 18.6 µM | 0.532 µM | 14.5 µM | 0.43 µM | 30.6 µM | 1.32 µM | 29.6 µM | 0.382 µM | 49.3 µM | 1.43 µM | 18.5 µM | 1.36 µM | 33.5 µM
N#Cc1nc(-c2ccccc2)oc1S(=O)(=O)N1CCOCC1 | 13.6 µM | 27.6 µM | 17.3 µM | 37.2 µM | 1.74 µM | 3.42 µM | 27.9 µM | > 100 µM | 16.3 µM | 50 µM | 6.67 µM | 19.6 µM | 2.58 µM | 7.89 µM
COc1ccc2c3c(c(OCCCN(C)C)nc2c1)-c1ccc(Cl)cc1C3=O | 9.66 µM | 22.9 µM | 2.26 µM | 10.2 µM | 1.29 µM | 3.52 µM | 4.39 µM | 23.1 µM | 13.3 µM | 34.3 µM | 14.2 µM | 28.3 µM | 15.4 µM | 56.1 µM
CC(=O)N1CC(F)(F)c2c(Sc3ncc(N4CCC5(CC4)COC[C@H]5N)nc3N)cccc21 | 15.4 µM | > 100 µM | 31.8 µM | > 100 µM | 17.7 µM | 46.6 µM | 23.1 µM | > 100 µM | 14.6 µM | 59.1 µM | 10.8 µM | 53.7 µM | 12.4 µM | 42.7 µM
O=C(/C=C/c1cccc(Cl)c1)c1ccc(Cl)cc1Cl | 12.2 µM | 27.2 µM | 13.2 µM | > 50 µM | 20.4 µM | > 50 µM | 10.4 µM | 29.7 µM | 13.2 µM | 40.1 µM | 8.94 µM | 20.7 µM | 1.68 µM | > 50 µM
CC[C@H](C)[C@H](NC(=O)C12C3C4C1C1C2C3C41NC(C)=O)C(=O)N(C)[C@H](C[C@@H](OC(C)=O)c1nc(C(=O)N[C@@H](Cc2ccccc2)C[C@H](C)C(=O)OC)cs1)C(C)C (stereo not given in full) | 3.97 µM | > 14.3 µM | 0.402 µM | > 14.3 µM | 0.354 µM | > 14.3 µM | 2.82 µM | > 14.3 µM | 0.468 µM | > 14.3 µM | 0.146 µM | 3.84 µM | 0.0735 µM | > 6.78 µM
Oc1ccccc1-n1c(-c2ccccc2)ccc1-c1ccccc1 | 15.2 µM | 48.7 µM | 4.35 µM | 17.7 µM | 4.71 µM | 16.6 µM | 4.62 µM | 19.6 µM | 14 µM | > 100 µM | 13.4 µM | 89.5 µM | 3.71 µM | 17.9 µM
COc1ccc(/C=C\c2cc(OC)c(OC)c(OC)c2)c(NS(=O)(=O)c2ccc(C)cc2)c1O | 0.15 µM | > 100 µM | 0.0351 µM | > 37.9 µM | 0.0357 µM | > 100 µM | 0.0473 µM | > 100 µM | 0.0483 µM | > 100 µM | 0.035 µM | 3.04 µM | 0.0502 µM | 23.9 µM
COc1ccc(NC(=O)c2cc(OC)c(OC)c(OC)c2)cc1O | 40.1 µM | > 100 µM | 3 µM | > 100 µM | 4.21 µM | > 100 µM | 4.59 µM | > 100 µM |  |  | 21.7 µM | > 100 µM | 5.93 µM | > 100 µM
Cn1c(=O)c2[nH]c(COc3ccc(C(C)(C)C)cc3)nc2n(C)c1=O | 24.2 µM | > 100 µM | 15.4 µM | > 100 µM | 10.2 µM | > 100 µM | 18.9 µM | > 100 µM | 20.2 µM | > 100 µM |  |  | 1.08 µM | 18.4 µM
FC(F)(F)c1ccc(-c2cnc(Br)nc2NC2CCCCCC2)cc1 | > 100 µM | > 100 µM | 82.2 µM | > 100 µM | 14.4 µM | > 100 µM | 86.5 µM | > 100 µM | > 100 µM | > 100 µM | 72.9 µM | > 100 µM | 7.98 µM | > 100 µM
O=C(/C=C\c1ccnc2ccccc12)c1ccc([N+](=O)[O-])cc1 | > 60.6 µM | > 100 µM | > 68.1 µM | > 100 µM | 1.59 µM | 3.15 µM | > 41.1 µM | > 100 µM | 27.3 µM | > 96 µM | 11.2 µM | 27.4 µM | 1.87 µM | 4.6 µM
COc1ccc(C(Nc2ncccn2)c2cc3c(cc2O)OCO3)cc1 (stereo not given) |  | 69.6 µM |  | 47.2 µM |  | 71.3 µM |  | > 100 µM |  | 52.4 µM |  | 64.3 µM |  | > 100 µM
CC#CC(=O)N1CCC[C@H]1c1nc(-c2ccc(C(=O)Nc3ccccn3)cc2)c2c(N)nccn12 | > 100 µM | > 100 µM | 89.5 µM | > 100 µM | > 76 µM | > 100 µM | > 79.1 µM | > 100 µM | > 72.5 µM | > 100 µM | > 96.5 µM | > 100 µM | 59 µM | > 100 µM
C=C(C)[C@H]1CC/C(C)=C/CCC(C)C(=O)CC/C(CO)=C\[C@@H]1O (stereo not given in full) | > 100 µM | > 100 µM | 58.8 µM | > 100 µM | 97.4 µM | > 100 µM | > 100 µM | > 100 µM | 41.9 µM | > 100 µM | 88.1 µM | > 100 µM | > 100 µM | > 100 µM
C#Cc1ccc(NC(=O)c2ccc(/C=C/C(=O)c3nccn3C)cc2)cc1 | 0.488 µM | 1.19 µM | 0.586 µM | 1.64 µM | 0.326 µM | 0.721 µM | 0.702 µM | 5.02 µM | 0.853 µM | 11.9 µM | 0.358 µM | 0.845 µM | 0.115 µM | 0.672 µM
O=Nc1c(O)ccc2ccccc12 | 1.83 µM | 3.44 µM | 14.2 µM | 35.7 µM | 2.25 µM | 5.87 µM | 4.9 µM | 17.5 µM | 2.45 µM | 8.24 µM | 12.2 µM | 24.9 µM | 2.64 µM | 7.21 µM
CC(C)C(N)(C(=O)O)c1ccccc1 (stereo not given) |  | > 100 µM |  | > 100 µM |  | > 100 µM |  | > 100 µM |  | > 100 µM |  | > 100 µM |  | > 100 µM
Cc1nc(NC(=O)N2CCC[C@H]2C(N)=O)sc1-c1ccnc(C(C)(C)C(F)(F)F)c1 | 0.776 µM and 1.02 µM | 57.4 µM and > 10 µM | 1.36 µM and 2.02 µM | > 100 µM | 2.87 µM and 3.48 µM | > 87.3 µM | 2.94 µM and 4.74 µM | 30.9 µM and > 10 µM |  | 21.2 µM and 3.1 µM | 4.91 µM and 6.33 µM | 44.6 µM and > 10 µM | 16.1 µM and > 10 µM | 58.5 µM and > 10 µM
C=C(C)C1/C=C(/C(C)C)CC[C@]2(C)O[C@@H]2CC[C@H](C)CC1=O (stereo not given in full) | > 100 µM | > 100 µM | 50.3 µM | > 100 µM | 17.7 µM | 42.2 µM | 48.5 µM | > 100 µM | 31.7 µM | > 100 µM |  |  | 15.5 µM | 34.4 µM
c1ccc(-c2nc(N3CCNCC3)c3nc(-c4ccccc4)oc3n2)cc1 | 1.7 µM | 3.15 µM | 1.73 µM | 3.38 µM | 1.25 µM | 2.9 µM |  |  | 1.87 µM | 4.11 µM | 1.67 µM | 3.24 µM | 2.08 µM | 4.64 µM
COc1ccc2c(c1)OC13Oc4cc(OC)ccc4C=C1CCCC3=C2 | > 100 µM | > 100 µM | > 100 µM | > 100 µM |  |  | > 100 µM | > 100 µM | > 100 µM | > 100 µM | > 100 µM | > 100 µM | 6.12 µM | > 100 µM
CC(=O)OC1CCC2(C)C(=CC(C3C=C4CC(OC(C)=O)CCC4(C)C4=C3C3CC5OC6(CCC(C)CO6)C(C)C5C3(C)CC4)C3=C2CCC2(C)C3CC3OC4(CCC(C)CO4)C(C)C32)C1 (stereo not given) |  | 35.9 µM |  |  |  | 28.4 µM |  | 26.5 µM |  | 17 µM |  | 29.7 µM |  | 16.2 µM
CC(C)(C)CC(C)(C)c1ccc(OCCOCCSC(=N)N)cc1 | 2.4 µM | 6.5 µM | 1.75 µM | 3.29 µM | 1.5 µM | 2.83 µM | 2.65 µM | 8.77 µM | 2.28 µM | 6.14 µM | 3.84 µM | 16 µM |  | 
